This is an account of results in ChEMBL document CHEMBL3632569, “Chemical constituents from Hericium erinaceus and their ability to stimulate NGF-mediated neurite outgrowth on PC12 cells” (Bioorg Med Chem Lett, 2015).

The structures appear in SMILES notation. Calls of active or inactive are those of the source. The rule behind the calls is not given here.

The subject of series [1] is PC-12. The experiment in a line: Effect on neurite outgrowth in rat PC12 cells at 10 and 20 uM after 48 hrs by inverted microscopic analysis. It is filed as functional, cell-based.
Series [2] can be described thus: Cytotoxicity against rat PC12 cells assessed as cell viability at 10 and 20 uM after 72 hrs by SRB assay. The format is cell-based. The note with it: pc-12, 72 h.
The subject of series [3] is PC-12. In words: Stimulation of NGF-mediated neurite outgrowth in rat PC12 cells at 10 and 20 uM after 48 hrs by inverted microscopic analysis. It is filed as functional, cell-based.
Series [4] relates to PC-12. In words: Stimulation of NGF-mediated neurite outgrowth in rat PC12 cells at 20 uM after 48 hrs by inverted microscopic analysis (reference value: 15.32 +/- 0.25%). The format is functional.

Regarding `C=C(C)[C@@H]1CC[C@]2(CO)CC[C@]3(C)[C@H](CC[C@@H]4[C@@]5(C)CC[C@H](O)C(C)(C)[C@@H]5CC[C@]43C)[C@@H]12` [BETULIN], in the series on PC-12 [1], the outcome was inactive. Also, the Activity result in series [2] is reported as “Non-toxic”.

For `COc1cc2c(c3c1CCC(C)(CC(=O)C=C(C)C)O3)C(=O)OC2` (racemic), the outcome in the series with PC-12 [3] was Active. Further, the Activity in the series on PC-12 [4] is reported as 19.96%; in series [2], “Non-toxic”. Also, in the series with PC-12 [1], the result was inactive.

In the case of `COc1cc2c(c3c1CC[C@@](C)(CC(=O)C=C(C)C)O3)C(=O)OC2`, the result in the series with PC-12 [3] was Active. Moreover, the Activity is listed as 17.85% in the series with PC-12 [4] and “Non-toxic” in series [2]. Moreover, in the series on PC-12 [1], the result was inactive.

With `C[C@H]1[C@H](C)CC[C@]2(C(=O)O)CC[C@]3(C)C(=CC[C@@H]4[C@@]5(C)CC[C@H](O)C(C)(C)[C@@H]5CC[C@]43C)[C@H]12` [URSOLIC ACID], the outcome with PC-12 [1] was inactive. Moreover, the Activity result in series [2] was “Non-toxic”.

With `C[C@H](CC[C@H](O)C(C)(C)O)[C@H]1CC[C@@]2(C)C3=C(CC[C@]12C)[C@@]1(C)CC[C@H](O)C(C)(C)C1CC3` (stereo partly drawn), the outcome with PC-12 [1] was inactive. Also, the Activity entry in series [2] is recorded as “Non-toxic”.

For `CCCCCCCCCCCCCCCCCCCC(O)C(=O)N[C@@H](CO)C(O)[C@H](O)CCCCCCCCCCCCCCCCC` (stereo partly drawn), the result in the series with PC-12 [1] was inactive. Also, the Activity result in series [2] is given as “Non-toxic”.

For the compound `COc1cc2c(c3c1CC[C@](C)(CC(=O)C=C(C)C)O3)C(=O)OC2`, the outcome in the series with PC-12 [3] was Active. In addition, the Activity in the series with PC-12 [4] is 21.79%; in series [2], “Non-toxic”. Besides, the outcome in the series with PC-12 [1] was inactive.

With `CC1(C)CC[C@]2(C(=O)O)CC[C@]3(C)C(=CC[C@@H]4[C@@]5(C)CC[C@H](O)C(C)(C)[C@@H]5CC[C@]43C)[C@@H]2C1` [OLEANOLIC_ACID], the outcome in the series with PC-12 [1] was inactive. The Activity entry in series [2] was “Non-toxic”.

For `CC(C)[C@@H](C)/C=C/[C@@H](C)[C@H]1CC[C@H]2C3=CC(=O)[C@@]4(O)C[C@@H](O)CC[C@]4(C)[C@@]3(O)CC[C@]12C`, the outcome in the series with PC-12 [3] was Active. Further, in the series with PC-12 [1], the outcome was inactive. The Activity result in series [2] is listed as “Non-toxic”.

Consider `CC(C)[C@@H](C)/C=C/[C@@H](C)[C@H]1CC[C@@H]2[C@]1(C)CC[C@H]1[C@]23C=C[C@]2(C[C@@H](O)CC[C@]12C)OO3` [ERGOSTEROL PEROXIDE], for which the outcome in the series on PC-12 [3] was Active. The result with PC-12 [1] was inactive. In addition, in series [2], the Activity result is listed as “Non-toxic”.

As to `C/C(=C\CC(O)[C@@H](C)[C@H]1CC[C@@]2(C)C3=C(CC[C@]12C)[C@@]1(C)CC[C@H](O)C(C)(C)C1CC3)C(=O)O` (stereo partly drawn), the result with PC-12 [1] was inactive. The Activity result in series [2] is given as “Non-toxic”.

Regarding `CC(C)[C@@H](C)/C=C/[C@@H](C)[C@H]1CC[C@H]2C3=C[C@@H](O)[C@@]4(O)C[C@@H](O)CC[C@]4(C)[C@H]3CC[C@]12C` [CEREVISTEROL], the result with PC-12 [3] was Active. In the series with PC-12 [1], the result was inactive. In series [2], the Activity result was “Non-toxic”.
